Measured values published in patent US11352370B2, “Mutant KRAS inhibitors” (H. LEE MOFFITT CANCER CENTER AND RESEARCH INSTITUTE, INC., priority 2015, dated 2022).

Molecular target: mt G12D KRas (Homo sapiens, UniProt P01116, G12D)
Test: Mant-GDP assay (inhibition of GTP displacing mant-GDP)
Type: binding
Details: for displacing mant-GDP from mt G12D KRas (in words): assay optimization, FIG. 1A

Chain of mt G12D KRas (P01116 1-188 isoform P01116-2 G12D): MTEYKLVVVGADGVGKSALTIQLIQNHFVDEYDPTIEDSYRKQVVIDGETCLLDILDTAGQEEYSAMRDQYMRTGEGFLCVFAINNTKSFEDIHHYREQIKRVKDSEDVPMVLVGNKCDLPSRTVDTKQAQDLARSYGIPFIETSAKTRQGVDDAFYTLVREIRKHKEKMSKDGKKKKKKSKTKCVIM

SMILES | IC50 (GTP titration in the absence of compounds, FIG. 3C, read-out: IC50 of GTP to displace mant-GDP) | displacing mant-GDP from mt G12D KRas (in words)
Nc1nc2c(ncn2[C@@H]2O[C@H](COP(=O)(O)OP(=O)(O)OP(=O)(O)O)[C@@H](O)[C@H]2O)c(=O)[nH]1 [GTP] | 620 nM | very effective
Nc1nc2c(ncn2[C@@H]2O[C@H](COP(=O)(O)OP(=O)(O)O)[C@@H](O)[C@H]2O)c(=O)[nH]1 [GDP] |  | very effective
